Data from PMC8908504 (ACS Omega, 2022).
Several values for one entry are separate records, joined by “and”; a condition that tells them apart may be missing. Identical values can stand only once. Like-named read-outs stand apart in the source and are kept apart here.

Columns and labels:
[1] = target: KV7.2/3 channel (Homo sapiens, UniProt O43525+O43526); experiment: KV7.2/3 channel opening assay (thallium-sensitive fluorescence); format: cell-based; settings: for EC50 / efficacy: HEK293 cells overexpressing KV7.2/3; for efficacy: relative to maximum signal of flupirtine (=100%); for KV7.2/3 channel opening activity (in words): inactive = no channel opening activity detected up to a concentration of 10 μM
Chain of KV7.2/3 channel (O43526 whole entry): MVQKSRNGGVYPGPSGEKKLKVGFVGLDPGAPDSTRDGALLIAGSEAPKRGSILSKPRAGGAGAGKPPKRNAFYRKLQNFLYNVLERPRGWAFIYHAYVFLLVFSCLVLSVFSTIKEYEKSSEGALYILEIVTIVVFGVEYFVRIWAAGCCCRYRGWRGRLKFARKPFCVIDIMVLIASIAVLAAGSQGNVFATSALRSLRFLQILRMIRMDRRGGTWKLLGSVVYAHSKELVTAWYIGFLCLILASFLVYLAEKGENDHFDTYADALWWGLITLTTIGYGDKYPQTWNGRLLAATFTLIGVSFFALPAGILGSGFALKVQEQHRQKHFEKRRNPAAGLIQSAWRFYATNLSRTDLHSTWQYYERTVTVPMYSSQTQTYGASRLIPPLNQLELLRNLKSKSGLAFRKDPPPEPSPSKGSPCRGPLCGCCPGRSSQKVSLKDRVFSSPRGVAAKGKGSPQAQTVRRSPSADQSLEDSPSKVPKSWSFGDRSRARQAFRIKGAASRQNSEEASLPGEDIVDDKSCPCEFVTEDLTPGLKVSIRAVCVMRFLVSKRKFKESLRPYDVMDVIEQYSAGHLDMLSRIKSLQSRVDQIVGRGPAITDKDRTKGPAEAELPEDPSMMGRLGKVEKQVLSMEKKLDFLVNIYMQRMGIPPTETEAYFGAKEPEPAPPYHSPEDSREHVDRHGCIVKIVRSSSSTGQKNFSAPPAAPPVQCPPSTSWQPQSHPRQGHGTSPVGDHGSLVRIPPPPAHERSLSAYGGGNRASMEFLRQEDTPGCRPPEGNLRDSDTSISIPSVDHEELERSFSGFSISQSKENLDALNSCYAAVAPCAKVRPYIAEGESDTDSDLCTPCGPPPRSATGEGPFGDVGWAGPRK
Chain of KV7.2/3 channel (O43525 whole entry): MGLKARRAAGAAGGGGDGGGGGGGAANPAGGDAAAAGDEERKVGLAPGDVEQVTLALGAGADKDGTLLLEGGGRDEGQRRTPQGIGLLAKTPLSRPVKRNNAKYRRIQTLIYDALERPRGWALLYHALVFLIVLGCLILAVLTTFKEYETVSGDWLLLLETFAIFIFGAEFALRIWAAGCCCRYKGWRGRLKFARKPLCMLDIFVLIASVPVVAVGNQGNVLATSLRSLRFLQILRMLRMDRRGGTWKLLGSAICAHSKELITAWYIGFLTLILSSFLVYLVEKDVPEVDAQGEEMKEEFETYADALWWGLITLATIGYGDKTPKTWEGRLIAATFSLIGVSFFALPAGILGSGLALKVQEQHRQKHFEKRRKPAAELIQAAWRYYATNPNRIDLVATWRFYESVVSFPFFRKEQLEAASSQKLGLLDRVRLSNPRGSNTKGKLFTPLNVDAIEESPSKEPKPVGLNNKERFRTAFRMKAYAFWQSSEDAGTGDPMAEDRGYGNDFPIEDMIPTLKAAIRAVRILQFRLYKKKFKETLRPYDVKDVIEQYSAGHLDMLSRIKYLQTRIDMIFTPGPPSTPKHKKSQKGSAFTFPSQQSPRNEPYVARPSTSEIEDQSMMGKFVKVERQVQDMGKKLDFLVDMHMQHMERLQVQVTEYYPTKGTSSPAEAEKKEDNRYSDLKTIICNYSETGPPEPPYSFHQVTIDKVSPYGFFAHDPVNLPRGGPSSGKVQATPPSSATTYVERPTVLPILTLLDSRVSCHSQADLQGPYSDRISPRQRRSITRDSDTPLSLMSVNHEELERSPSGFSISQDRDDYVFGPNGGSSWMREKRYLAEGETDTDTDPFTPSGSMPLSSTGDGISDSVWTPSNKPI
Protocol: To evaluate the biological activity, the synthesized analogues were tested on HEK293 cells overexpressing the KV7.2/3 channel. The measurement was carried out in a fluorescence-based assay in which a thallium-sensitive dye generated the fluorescence signal. Due to its similarity to potassium, thallium can also pass through KV7 channels. The intensity of the fluorescence signal correlates with the amount of intracellular thallium and thus with the ability of the compounds to open KV7 channels. To determine the potency, the fluorescence intensity was measured as a function of the compound concentration. The efficacy was determined relative to the maximum fluorescence signal induced by flupirtine. For a summary of the activity data, see Table 2.
The cell culture of the KV7.2/3 transfected HEK293 cells (HEK293 KCNQ2/3 cells from SB Drug Discovery, Glasgow, UK) used for the assay and the processing of the obtained data were performed as described in earlier work.[27],[29] Briefly, 60,000 cells/well were seeded into 96-well microtiter plates for fluorescence-based assays (4titude Vision Plate Black 96-Well microtiter plates from ThermoScientic) and incubated for 24 h. After incubation, the medium was changed to 200 μL/well loading buffer containing 5 mmol/L probenecid and incubated for 1 h at room temperature. Subsequently, the test compounds dissolved in DMSO were added to the wells to the desired concentrations and further incubated for 30 min. As a control, the loading buffer with a DMSO concentration corresponding to the substance samples (1% (V/V)) was used. Fluorescence measurements were performed on the Infinite F200 Pro plate reader (Tecan) set at […]/emission wavelengths of 485 and 535 nm, respectively. After measuring the background fluorescence (baseline) for 20 s, a stimulus buffer (25 mmol/L K^+, 15 mmol/L Tl^+) was added just before the fluorescence of each well was measured.
The calculations to obtain dose–response curves were performed in the same manner as in previous investigations.[27],[29] Briefly, the fluorescence intensity was normalized with the baseline signal (F/F0) at each time of signal acquisition. To obtain the corrected negative control, a value of 1 was subtracted from the normalized value of the negative control. Subsequently, the value of the corrected negative control was subtracted from the maximum (corr. F/F0) value of a compound in a defined concentration (corr. ΔF/F0) and then plotted against the logarithmic concentration. The EC50 value was calculated as relative values with GraphPad Prism 6 (La Jolla, CA, USA), that is, the inflection points of the sigmoidal curves. The Emax value, the maximum response, indicates the intrinsic activity of a compound. This value was determined relative to flupirtine (1), where the maximum corr. ΔF/F0 value of flupirtine (1) was defined as 100%. The EC50 and Emax value of a compound is the mean of at least three independent experiments ± standard deviation (SD).

[2] = log D7.4 estimation by HPLC-based method; format: physicochemical; settings: HPLC, Phenomenex Luna 5 μm Phenyl-Hexyl column
Protocol: The log D7.4 values were estimated using a common HPLC-based method in accordance with guideline OPPTS 830.7570 of the United States Environmental Protection Agency (EPA). The HPLC measurements were performed with a Phenomenex Luna 5 μm Phenyl-Hexyl 100 Å column (150 × 4.6 mm). […]. Uracil was used to measure the unretained peak time. To obtain a calibration function, the logarithm of the capacity factors for the reference substances was then plotted against the corresponding log P values taken from the mentioned guideline, which are equivalent to the log D7.4 values for non-ionizable compounds like the reference substances used for calibration. With this calibration function, it was possible to estimate the log D7.4 value from the corresponding retention time for each compound to be tested. For the measurement, 2 mg of the reference substances was each dissolved in 1 mL of methanol. A reference mixture was then obtained by combining 50 μL of each reference solution. The reference mixture was measured before and after the substances to be tested. The mean value from both measurements was used for the calibration line. The substances to be tested were injected as a solution in methanol (2 mg/mL), and the retention time was determined as the mean value from two measurements.

[3] = test system: TAMH cells; experiment: MTT cell viability assay, TAMH cells; settings: for LD50: 50% reduction of viability
Description: (§1) In addition to the activity, basic toxicological properties of the newly synthesized compounds were also investigated by using the 3-(4,5-dimethylthiazol-2-yl)-2,5-diphenyltetrazolium bromide (MTT) cell viability assay on mouse TAMH and human HEP-G2 hepatic cell lines (see Table 2). Both cell lines are established for the evaluation of hepatotoxicity.[42],[43]
(§2) The culturing of the mouse liver TAMH and human liver cancer HEP-G2 cell lines and the MTT assay used to evaluate cell viability were carried out as previously described elsewhere in detail.[27],[29] […] The medium in the wells was then replaced with the medium containing the compounds. Control wells contained an equivalent number of cells and 1% (v/v) DMSO. Wells without cells were used to determine the background optical density (OD) and were treated as the control wells. After 24 or 48 h of incubation with the compound, the respective medium was replaced with a fresh medium supplemented with 10% (v/v) of a 2.5 mg/mL solution of MTT. The plates were incubated for 4 h. Then, the culture medium was carefully aspirated off and 50 μL of DMSO was added to each well to dissolve the formazan crystals. The ODs of each well were measured at λ = 570 nm with a SpectraMax 190 microplate reader.
(§3) The calculated T/Ccorr. values were plotted against the log(concentration). The LD50 and LD25 values were determined by using GraphPad Prism 6. […] The values are given as the mean with SD of at least three independent experiments.

[4] = test system: HEP-G2 cells; experiment: MTT cell viability assay, HEP-G2 cells; settings: for LD50: 50% reduction of viability
Description: as §1, §2, §3

[5] = concentration for half-maximal channel opening, mean ± SD, ≥3 determinations
[6] = pH 7.4, HPLC, calibration A1, read-out: logD7.4
[7] = pH 7.4, HPLC, calibration B1, read-out: logD7.4
[8] = pH 7.4, HPLC, mean of two calibrations, read-out: logD7.4 (mean)
[9] = pH 7.4, estimated by HPLC-based method, pH 7.4, read-out: log D7.4
[10] = TAMH cells, MTT assay, 24 h exposure, 25% reduction of viability
[11] = TAMH cells, MTT assay, 24 h exposure
[12] = HEP-G2 cells, MTT assay, 24 h exposure, 25% reduction of viability
[13] = HEP-G2 cells, MTT assay, 24 h exposure
[14] = pH 7.4, HPLC, calibration C, read-out: logD7.4
[15] = pH 7.4, HPLC, calibration D, read-out: logD7.4

Row | SMILES | chromatographic logD [2, 6] | chromatographic logD [2, 7] | chromatographic logD [2, 8] | chromatographic logD [2, 9] | LD25 [3, 10] [µM] | LD50 [3, 11] [µM] | LD25 [4, 12] [µM] | LD50 [4, 13] [µM] | EC50 ([1]; footnote e) [µM] | KV7.2/3 channel opening activity (in words) [1] | chromatographic logD [2, 14] | chromatographic logD [2, 15] | also measured
1 | CCCCNC(=O)c1c(C)cc(NCc2ccc(F)cc2)nc1OC [36a, N-Butyl-6-[(4-fluorobenzyl)amino]-2-methoxy-4-methylnicotinamide] | 3.7 | 3.66 | 3.7 | 3.7 | 17 ± 1 | >63 | 24 ± 1 | >63 |  |  |  |  | loss of potency (factor) ([1]; 36a compared with 36b): 11; EC50 [1, 5]: 3.51 ± 0.724 µM; efficacy [1]: 65% and 65 ± 9%
2 | CCCNC(=O)c1ccc(NCc2ccc(F)cc2)cc1CC.Cl [compound 47, 2-Ethyl-4-[(4-fluorobenzyl)amino]-N-propylbenzamide hydrochloride] |  |  | 3.2 | 3.2 |  | >125 | 60 ± 9 | 77 ± 15 | > 10 | did not result in any improvement in terms of activity | 3.24 | 3.23 | 
3 | Cc1cc(N2CCOCC2)nc(N2CCOCC2)c1CNC(=O)c1ccc(F)cc1 [55a, 4-Fluoro-N-[(4-methyl-2,6-dimorpholinopyridin-3-yl)methyl]benzamide] | 3.45 | 3.46 | 3.5 | 3.5 | 22 ± 7 | >31 | 22 ± 6 | >31 | > 10 | inactive |  |  | 
4 | CC(C)CNC(=O)c1ccc(NCc2ccc(F)cc2)cc1N [compound 17, 2-Amino-4-[(4-fluorobenzyl)amino]-N-isobutylbenzamide] |  |  | 2.7 | 2.7 | >125 | >125 | 56 ± 40 | >125 | > 10 | inactive | 2.75 | 2.75 | 
5 | CCOC(=O)Nc1ccc(NCc2ccc(F)cc2)nc1N [compound 1, flupirtine, reference compound] | 2.1 | 2.06 | 2.1 | 2.1 |  | 487 ± 51 |  | 547 ± 111 |  |  |  |  | EC50 [1, 5]: 1.84 ± 0.844 µM; efficacy [1]: 100%; LD50 ([3]; TAMH cells, MTT assay, 24 h exposure, listed as flupirtine): ~500 µM; LD25 ([3]; mouse, 24 h): 103 ± 47 µM; LD50 ([4]; HEP-G2 cells, MTT assay, 24 h exposure, listed as flupirtine): ~500 µM; LD25 ([4]; human, 24 h): 74 ± 40 µM
6 | Cc1cc(N2CCOCC2)nc(N2CCOCC2)c1CNC(=O)Cc1cc(F)cc(F)c1 [55b, 2-(3,5-Difluorophenyl)-N-[(4-methyl-2,6-dimorpholinopyridin-3-yl)methyl]acetamide] | 3.52 | 3.53 | 3.5 | 3.5 | 24 ± 5 | >250 | 20 ± 7 | >250 | > 10 | inactive |  |  | 
7 | Cc1cc(NCc2ccc(F)cc2)nc(N2CCOCC2)c1CNC(=O)OCC(C)C [compound 66, Isobutyl ({6-[(4-Fluorobenzyl)amino]-4-methyl-2-morpholinopyridin-3-yl}methyl)carbamate] |  |  | 4.8 | 4.8 | 52 ± 61 | >125 | 24 ± 27 | >125 | > 10 | inactive |  |  | chromatographic logD ([2]; pH 7.4, HPLC, calibration A2, read-out: logD7.4): 4.75; chromatographic logD ([2]; pH 7.4, HPLC, calibration B2, read-out: logD7.4): 4.75
8 | Cc1cc(N2CCOCC2)nc(N)c1CNC(=O)Cc1cc(F)cc(F)c1 [compound 61, N-[(2-Amino-4-methyl-6-morpholinopyridin-3-yl)methyl]-2-(3,5-difluorophenyl)acetamide] | 2.57 | 2.58 | 2.6 | 2.6 | >63 | >63 | >63 | >63 | > 10 | inactive |  |  | 
9 | CCCCNC(=O)c1ccc(NCc2ccc(F)cc2)nc1N [compound 21, 2-Amino-N-butyl-6-[(4-fluorobenzyl)amino]nicotinamide] | 2.88 | 2.86 | 2.9 | 2.9 | 145 ± 7 | 149 ± 7 | 148 ± 11 | 149 ± 11 | > 10 | inactive |  |  | 
10 | COc1cc(NCc2ccc(F)cc2)ccc1C(=O)NCC(C)C [28a, 4-[(4-Fluorobenzyl)amino]-N-isobutyl-2-methoxybenzamide] |  |  | 3.8 | 3.8 | 43 ± 27 | >63 | 31 ± 13 | 42 ± 7 | > 10 | inactive | 3.79 | 3.79 | 
